# Assay results taken from the Kinase Knowledgebase extract (Sharma et al. 2016).
# pIC50: −log10 of the molar value.
# Target: PIK3CA (human) (UniProt P42336)
# Test: Assessment of PI3KCA Kinase Activity
# Chain of PIK3CA (human) (P42336 whole entry, looked up): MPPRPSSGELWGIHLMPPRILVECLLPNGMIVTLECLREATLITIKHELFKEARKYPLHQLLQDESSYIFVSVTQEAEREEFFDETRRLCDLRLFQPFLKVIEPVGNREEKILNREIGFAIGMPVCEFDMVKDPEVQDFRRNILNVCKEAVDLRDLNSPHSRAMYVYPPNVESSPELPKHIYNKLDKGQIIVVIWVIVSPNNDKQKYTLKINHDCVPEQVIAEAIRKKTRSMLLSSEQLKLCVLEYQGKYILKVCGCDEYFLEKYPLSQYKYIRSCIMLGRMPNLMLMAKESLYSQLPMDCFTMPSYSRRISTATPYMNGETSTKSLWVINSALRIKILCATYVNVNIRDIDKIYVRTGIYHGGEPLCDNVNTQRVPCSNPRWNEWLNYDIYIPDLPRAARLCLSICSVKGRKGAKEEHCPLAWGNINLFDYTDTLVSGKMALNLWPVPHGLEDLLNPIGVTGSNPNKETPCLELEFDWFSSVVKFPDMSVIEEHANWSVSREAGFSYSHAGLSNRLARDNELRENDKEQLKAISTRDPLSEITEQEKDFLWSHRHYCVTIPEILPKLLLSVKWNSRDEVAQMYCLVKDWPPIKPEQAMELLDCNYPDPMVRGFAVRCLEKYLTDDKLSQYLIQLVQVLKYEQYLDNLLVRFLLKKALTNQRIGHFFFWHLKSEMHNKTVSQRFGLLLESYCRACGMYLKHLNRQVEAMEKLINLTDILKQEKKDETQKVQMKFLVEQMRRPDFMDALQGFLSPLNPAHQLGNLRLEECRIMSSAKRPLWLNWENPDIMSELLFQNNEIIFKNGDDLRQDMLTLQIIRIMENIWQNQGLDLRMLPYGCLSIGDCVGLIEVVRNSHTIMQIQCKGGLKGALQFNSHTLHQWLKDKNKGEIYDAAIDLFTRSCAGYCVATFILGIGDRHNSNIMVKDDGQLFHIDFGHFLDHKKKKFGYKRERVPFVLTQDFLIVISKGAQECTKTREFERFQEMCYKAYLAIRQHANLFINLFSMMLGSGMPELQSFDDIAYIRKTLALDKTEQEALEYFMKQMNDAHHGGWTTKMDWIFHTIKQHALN
row,pIC50,Structure (SMILES)
1,> 7.00,Cc1nn2ccsc2c1-c1nc(-c2ccc(F)c(F)c2)c(-c2nnc[nH]2)s1
2,> 7.00,Cc1nn2ccccc2c1-c1nc(-c2cnc3[nH]ccc3c2)c(-c2nc[nH]n2)s1
3,6.00 to 7.00,COC(=O)c1cccc(-c2nc(-c3c(C)nn4ccccc34)sc2-c2nc[nH]n2)c1
4,6.00 to 7.00,COc1ncccc1-c1nc(-c2ccnc(NC(C)=O)c2)sc1-c1nnc[nH]1
5,> 7.00,CCCOc1nc(-c2c(C)nn3ccccc23)sc1-c1nnc[nH]1
6,> 7.00,Cc1nn2ccc(OCCN3CCNC(=O)C3)cc2c1-c1nc(-c2ccccc2)c(-c2nc[nH]n2)s1
7,> 7.00,COc1cccc(Cl)c1-c1nc(-c2c(C)nn3ccccc23)sc1-c1nc[nH]n1
8,> 7.00,c1ccc(-c2nc(-c3ccnc4ccsc34)sc2-c2nnc[nH]2)cc1
9,> 7.00,Cc1nn2ccccc2c1-c1nc(-c2ccc(F)cc2F)c(-c2nc[nH]n2)s1
10,> 7.00,Cc1nn2ccccc2c1-c1nc(-c2cnn(C)c2C)c(-c2nc[nH]n2)s1

# Second part, the compound before the results:
row,Structure (SMILES),pIC50
1,N#Cc1c(-c2ccnc(N)c2)sc(C(N)=O)c1-c1ccc(Cl)cc1Cl,> 7.00
2,N#Cc1c(-c2ccnc(N)c2)sc(-c2cnn[nH]2)c1-c1ccc(Cl)cc1Cl,6.00 to 7.00
3,CC(=O)Nc1nc2c(-c3cc(-c4ccc(Cl)cc4Cl)c(-c4ncc[nH]4)s3)ncnc2s1,6.00 to 7.00
4,N#Cc1c(-c2ccnc(NC(=O)CN)c2)sc(-c2nnc[nH]2)c1-c1ccc(Cl)cc1Cl,> 7.00
5,CC(=O)Nc1cc(-c2nc(-c3cccc4cnccc34)c(-c3ncc[nH]3)s2)ccn1,6.00 to 7.00
6,N#Cc1c(-c2ccnc(N)c2)sc(-c2ccn[nH]2)c1-c1ccc(Cl)cc1Cl,6.00 to 7.00
7,CC(=O)Nc1cc(-c2nc(-c3cccc(C(F)(F)F)c3)c(-c3ncc[nH]3)s2)ccn1,6.00 to 7.00
8,CCOc1nc(-c2ccnc(NC(=O)Cc3ccccc3)c2)sc1-c1nnc[nH]1,6.00 to 7.00
9,CC(=O)Nc1cc(-c2sc(-c3nnc[nH]3)c(-c3ccc(Cl)cc3Cl)c2C#N)c(F)cn1,6.00 to 7.00
10,CCOc1nc(-c2ccnc(NC(=O)COc3ccccc3)c2)sc1-c1nnc[nH]1,6.00 to 7.00
11,CCNC(=O)Nc1cc(-c2nc(OCC)c(-c3nc[nH]n3)s2)ccn1,6.00 to 7.00
12,COCCCNc1cc(-c2sc(-c3nnc[nH]3)c(-c3ccc(Cl)cc3Cl)c2C#N)ccn1,6.00 to 7.00
